Laboratory results: patent US5126258A (priority 1988, dated 1992)

Experiments:
[1] = Spontaneous (uncatalyzed, background) hydrolysis; format: physicochemical; settings: for Spon. (spontaneous hydrolysis): pH 8.0, 50 mM phosphate, time (h): 17 2, 18 24, 20 0.33, 5 0.33, 22 3.5
Summary of the method: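 Background (uncatalyzed) hydrolysis of ester substrates measured in 50 mM phosphate buffer, pH 8.0, without antibody, as percentage of reactant consumed over the stated period. Quantified by C18 HPLC (acetonitrile/water with 0.1% trichloroacetic acid); Compounds 5 and 20 followed by fluorescence (ex 355 nm, em 455 nm).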

[2] = tested on: Monoclonal Receptor 22F5; experiment: Kinetics of hydrolysis by receptor 22F5; format: biochemical, mouse
From the text: Reaction kinetics were studied using three reactant ligands as substrates for monoclonal receptors 37G2 and 22F5. Data from initial rates were consistent with Michaelis-Menten reaction mechanism for a usual enzyme-substrate system. Initial rates were followed using at 271 nm using a U.V.-visible spectorphotometer for Compound 17, and a fluorescence spectrometer for Compounds 5 and 20, using an excitation wavelength of 355 nm and an emission wavelength of 455 nm for both compounds.
Lineweaver-Burke plots for the catalyzed hydrolysis of Compounds 17, 5 and 20 obtained in the presence and absence of Compound 12i as inhibitor were prepared as discussed for FIG. 4. In particular, Compound 17 was present at concentrations of 1-16 uM with inhibitor concentrations of 100 and 300 nanomolar (nM). Compound 5 was present at concentrations of 1-10 uM with inhibitor concentrations of 100 and 200 nM. Compound 20 was present at concentrations of 2-20 uM with inhibitor concentrations of 25 and 100 nM.
*Fluorescence assays using Compounds 20 and 5 were carried out in a
PerkinElmer fluorescence spectrophotometer (moded LS5; Oakbrook, IL) usin
200 nanomolar receptor (based on a molecular weight of 150,000 daltons) i
50 mM phosphate buffer at a pH value of 8.0. The reactant ligand was
dissolved in dioxane and admixed in the amounts discussed above. Two
milliliters of reaction solution were utilized as was a dioxane
concentration of 2 percent by volume. […]

[3] = tested on: P2 57G4; experiment: Catalytic hydrolysis by receptor P2 57G4; format: biochemical, mouse
Description: Two further catalytic monoclonal receptors were similarly prepared by another fusion using Compound 2i linked to an antigenic carrier as immunogen. Those two catalytic receptor molecules and their hybridomas were designated "P2 50D8" and "P2 57G4".
In one study, twenty-eight monoclonal anti-hapten antibodies to phosphonate 2i from two separate fusion experiments were assayed. […] Antibodies to Compound 4i as hapten were assayed in the same manner. Twelve gamma-globulins were screened as described above. Compound 5 is homologous only in the acyl portion of this larger hapten; however, all but three of these cross-reacted with smaller phosphonate 2 in an ELISA assay as described herein. For two of these there was observed a fluorescence change, occurring in the first 5 minutes of incubation, which corresponds to about 50 percent of that for complete hydrolysis. The background rate of hydrolysis was reestablished after this initial reaction leveled off.

[4] = tested on: 44A2; experiment: Hydrolysis of reactant ligands by receptor 44A2; format: biochemical, mouse; settings: for hydrolysis by 44A2: pH 8.0, receptor/ligand uM, time h: 17 1/10, 2, 18 2/10, 24, 20 2/10, 0.33, 5 1/5, 0.33, 22 5/10, 3.5, preliminary
Description: ^1 Preliminary initial hydrolyses shown as the percentage of admixed
reactant ligand consumed for catalyzed and spontaneous hydrolyses. "--" =
No hydrolysis observed. "NT" = Not tried. All reactions were carried out
at pH 8.0 in a 50 mM phosphate buffer unless otherwise noted. Hydrolytic
percentages were determined by HPLC using a Hitachi model 655A12 liquid
chromatograph with a C18 Vydac 201TP54 column, except as noted below.
Mixtures of acetonitrile a nd water containing 0.1 percent trichloroaceti
acid [28:72-50:50 (v/v)] were used as elutant. Hydrolyses of Compounds 5
and 20 were assayed using fluorescence data.
^2 Concentrations of receptor molecules (Rec.) and reactant ligands
(Lig.) in micromolar units, presuming a molecular weight of 150,000
daltons for each receptor molecule.
^3 Reactant ligand (Lig.) used as substrate.
^4 Time in hours that the reaction was permitted to take place.
^5 Spontaneous hydrolytic percentages for the time period indicated.
^6 Reaction carried out at pH 7.2 in a 50 mM phosphate buffer.

[5] = tested on: anti-Compound 4i antibodies; experiment: Fluorescence esterolytic assay of twelve anti-Compound 4i gamma-globulins with Compound 5; format: biochemical, mouse; settings: two of twelve anti-Compound 4i antibodies, first 5 minutes of incubation
Description: A Perkin-Elmer LS-5 fluorescence spectrometer was operated at a fixed wavelength, using 355 nanometers (nm) for excitation and measuring the emission at 455 nm. A stock solution of the coumarin ester 5 was prepared in dioxane and was diluted to the desired concentrations in Tris-HCl (50 mM, pH 7) or sodium phosphate (50 mM, pH 4-9).
Reactions were run at 23 degrees C and were initiated by the addition of an aliquot of antibody solution (1 mg/ml) to substrate solutions to provide a final protein concentration of 100 nM. Final fluorescence values were determined by hydrolysis of the substrate with pig liver esterase. The observed reaction rate was corrected for spontaneous hydrolysis. Reaction kinetics were studied by measuring initial rates under pseudo-first order conditions. Active protein concentration was extrapolated from fluorescence values at the end of the reaction. The kinetic parameters were obtained by fitting the data to a hyperbolic curve and from double reciprocal plots. Inhibition constants were determined from the Lineweaver-Burk plot data with at least five inhibitor concentrations. […]
The fluorescence change upon hydrolysis of coumarin esters is easily detectable at nanomolar concentrations.
The practical range of pH for the assay is limited by the rapid spontaneous rate of hydrolysis of an ester Compound 5 above pH 8.0. […] Any change in fluorescence above background was noted. […]

| spontaneous rate of hydrolysis ([1]; above pH 8.0) | Spon. (spontaneous hydrolysis) [1] | Km ([2]; 50 mM phosphate pH 8.0, 200 nM receptor, 2% dioxane, figure = Km × 10^6) [µM] | kcat ([2]; pH 8.0) [s⁻¹] | Vmax ([2]; pH 8.0, 200 nM receptor, figure = Vmax × 10^9) [µM/min] | catalytic hydrolysis by P2 57G4 [3] | hydrolysis by 44A2 [4] | Spon. (spontaneous hydrolysis), pH 7.2 ([1]; pH 7.2, 50 mM phosphate, 2 h) | hydrolysis by 44A2, pH 7.2 ([4]; pH 7.2, 1 uM receptor, 10 uM ligand, 2 h) | SMILES | fluorescence change as share of complete hydrolysis [5] |
| --- | --- | --- | --- | --- | --- | --- | --- | --- | --- | --- |
| rapid | 5 percentage of reactant ligand | 1.4 | 0.0022 | 0.0912 | capable of catalytically hydrolyzing | 47 percentage of reactant ligand | – | – | O=C(Cc1ccc(NC(=O)C(F)(F)F)cc1)Oc1ccc2ccc(=O)oc2c1 [Compound 5] | about 50% |
| – | 7 percentage of reactant ligand | – | – | – | – | 62 percentage of reactant ligand | 4 percentage of reactant ligand | 19 percentage of reactant ligand | CC(=O)Nc1ccc(CC(=O)Oc2cccc3ccccc23)cc1 [Compound 17] | – |
